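Compound exposure: 48 hours, 5 concentrations, 96-well plates. TGI: total growth inhibition.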 Where a SMILES comes first, the peptide text is derived from it. [ ]: non-standard residue; d: D form. The star is where a group is joined. Bn2Val = CC(C)[C@@H](C(=O)*)N(Cc1ccccc1)Cc1ccccc1; NH(4-F-benzyl) = Fc1ccc(CN*)cc1; NMeV = CN[C@H](C(=O)O)C(C)C; dNMeA = CN[C@H](C)C(=O)O
Columns and labels:
Assay in all cases: inhibition of tumour cell growth, NCI panel, 48 h
UACC-62 melanoma = test system: UACC-62 melanoma
A549 NSCLC = test system: A549 NSCLC
HS 578T breast = test system: HS 578T breast
COLO 205 colon = test system: COLO 205 colon
T-47D breast = test system: T-47D breast
MALME-3M melanoma = test system: MALME-3M melanoma
SK-MEL-5 melanoma = test system: SK-MEL-5 melanoma
HCT-15 colon = test system: HCT-15 colon
RXF 393 renal = test system: RXF 393 renal
UO-31 renal = test system: UO-31 renal
SK-MEL-28 melanoma = test system: SK-MEL-28 melanoma
HOP-92 NSCLC = test system: HOP-92 NSCLC
TK-10 renal = test system: TK-10 renal
NCI-H226 lung = test system: NCI-H226 lung
RPMI-8226 leukemia = test system: RPMI-8226 leukemia
SW-620 colon = test system: SW-620 colon
SF-295 CNS = test system: SF-295 CNS
UACC-257 melanoma = test system: UACC-257 melanoma
SR leukemia = test system: SR leukemia
BT-549 breast = test system: BT-549 breast
HT29 colon = test system: HT29 colon
SK-MEL-2 melanoma = test system: SK-MEL-2 melanoma
KM12 colon = test system: KM12 colon
EKVX NSCLC = test system: EKVX NSCLC
A498 renal = test system: A498 renal
SF-268 CNS = test system: SF-268 CNS
LOX IMVI melanoma = test system: LOX IMVI melanoma
CAKI-1 renal = test system: CAKI-1 renal
DU-145 prostate = test system: DU-145 prostate
HCT-116 colon = test system: HCT-116 colon
ACHN renal = test system: ACHN renal
NCI-H460 lung = test system: NCI-H460 lung
NCI-H23 lung = test system: NCI-H23 lung
CCRF-CEM leukemia = test system: CCRF-CEM leukemia
SNB-75 CNS = test system: SNB-75 CNS
HOP-62 NSCLC = test system: HOP-62 NSCLC
HL-60(TB) leukemia = test system: HL-60(TB) leukemia
HCC-2998 colon = test system: HCC-2998 colon
OVCAR-5 ovarian = test system: OVCAR-5 ovarian
K-562 leukemia = test system: K-562 leukemia
M14 melanoma = test system: M14 melanoma
IGROV1 ovarian = test system: IGROV1 ovarian
MDA-MB-231 breast = test system: MDA-MB-231 breast
MOLT-4 leukemia = test system: MOLT-4 leukemia
OVCAR-3 ovarian = test system: OVCAR-3 ovarian
SF-539 CNS = test system: SF-539 CNS
MDA-MB-435 = test system: MDA-MB-435
NCI/ADR-RES ovarian = test system: NCI/ADR-RES ovarian
MCF7 breast = test system: MCF7 breast
SN12C renal = test system: SN12C renal
OVCAR-8 ovarian = test system: OVCAR-8 ovarian
OVCAR-4 ovarian = test system: OVCAR-4 ovarian
SK-OV-3 ovarian = test system: SK-OV-3 ovarian
NCI-H522 lung = test system: NCI-H522 lung
MDA-N = test system: MDA-N
786-0 renal = test system: 786-0 renal
U251 CNS = test system: U251 CNS
PC-3 prostate = test system: PC-3 prostate
SNB-19 CNS = test system: SNB-19 CNS

With CCOC(=O)NN(C(=O)OCC)C(=C(c1ccccc1)N1CCOCC1)N(NC(=O)OCC)C(=O)OCC the TGI (UACC-62 melanoma) was over 100 µM, the TGI (A549 NSCLC) was over 100 µM and the TGI (HS 578T breast) was over 100 µM. For the same compound, the TGI (COLO 205 colon) was over 100 µM, the TGI (T-47D breast) was over 100 µM and the TGI (MALME-3M melanoma) was over 100 µM. For the same compound, the TGI (SK-MEL-5 melanoma) was over 100 µM, the TGI (HCT-15 colon) was over 100 µM and the TGI (RXF 393 renal) was over 100 µM. For the same compound, the TGI (UO-31 renal) was over 100 µM, the TGI (SK-MEL-28 melanoma) was over 100 µM and the TGI (HOP-92 NSCLC) was over 100 µM. It also gave a TGI (TK-10 renal) of over 100 µM, a TGI (NCI-H226 lung) of over 100 µM and a TGI (RPMI-8226 leukemia) of over 100 µM. It also gave a TGI (SW-620 colon) of over 100 µM, a TGI (SF-295 CNS) of over 100 µM and a TGI (UACC-257 melanoma) of over 100 µM. For the same compound, the TGI (SR leukemia) was over 100 µM, the TGI (BT-549 breast) was over 100 µM and the TGI (HT29 colon) was over 100 µM. It also gave a TGI (SK-MEL-2 melanoma) of over 100 µM, a TGI (KM12 colon) of over 100 µM and a TGI (EKVX NSCLC) of over 100 µM. For the same compound, the TGI (A498 renal) was over 100 µM, the TGI (SF-268 CNS) was over 100 µM and the TGI (LOX IMVI melanoma) was over 100 µM. The TGI (CAKI-1 renal) was over 100 µM, the TGI (DU-145 prostate) was over 100 µM and the TGI (HCT-116 colon) was over 100 µM. It also gave a TGI (ACHN renal) of over 100 µM, a TGI (NCI-H460 lung) of over 100 µM and a TGI (NCI-H23 lung) of over 100 µM. The TGI (CCRF-CEM leukemia) was over 100 µM, the TGI (SNB-75 CNS) was over 100 µM and the TGI (HOP-62 NSCLC) was over 100 µM. For the same compound, the TGI (HL-60(TB) leukemia) was over 100 µM, the TGI (HCC-2998 colon) was over 100 µM and the TGI (OVCAR-5 ovarian) was over 100 µM. The TGI (K-562 leukemia) was over 100 µM, the TGI (M14 melanoma) was over 100 µM and the TGI (IGROV1 ovarian) was over 100 µM. It also gave a TGI (MDA-MB-231 breast) of over 100 µM, a TGI (MOLT-4 leukemia) of over 100 µM and a TGI (OVCAR-3 ovarian) of over 100 µM. For the same compound, the TGI (SF-539 CNS) was over 100 µM, the TGI (MDA-MB-435) was over 100 µM and the TGI (NCI/ADR-RES ovarian) was over 100 µM. The TGI (MCF7 breast) was over 100 µM, the TGI (SN12C renal) was over 100 µM and the TGI (OVCAR-8 ovarian) was over 100 µM. It also gave a TGI (OVCAR-4 ovarian) of over 100 µM, a TGI (SK-OV-3 ovarian) of over 100 µM and a TGI (NCI-H522 lung) of over 100 µM. It also gave a TGI (MDA-N) of over 100 µM, a TGI (786-0 renal) of over 100 µM and a TGI (U251 CNS) of over 100 µM. It also gave a TGI (PC-3 prostate) of over 100 µM and a TGI (SNB-19 CNS) of over 100 µM.

For CC(C)[C@H](NC(=O)[C@H](C(C)C)N(Cc1ccccc1)Cc1ccccc1)C(=O)N(C)[C@H](C(=O)N1CCC[C@H]1C(=O)N(C)[C@H](C)C(=O)NCc1ccc(F)cc1)C(C)C (Bn2Val-V[NMeV]P[dNMeA]-{NH(4-F-benzyl)}), the TGI (UACC-62 melanoma) was 9.66 µM, the TGI (A549 NSCLC) was over 25.2 µM and the TGI (HS 578T breast) was 24.7 µM. The TGI (COLO 205 colon) was 3.28 µM, the TGI (T-47D breast) was over 83.9 µM and the TGI (MALME-3M melanoma) was 9.23 µM. For the same compound, the TGI (SK-MEL-5 melanoma) was 4.7 µM, the TGI (HCT-15 colon) was over 80.9 µM and the TGI (RXF 393 renal) was 7.9 µM. For the same compound, the TGI (UO-31 renal) was 6.42 µM, the TGI (SK-MEL-28 melanoma) was over 61.7 µM and the TGI (HOP-92 NSCLC) was 10.3 µM. It also gave a TGI (TK-10 renal) of over 61.2 µM, a TGI (NCI-H226 lung) of 6.23 µM and a TGI (RPMI-8226 leukemia) of over 100 µM. The TGI (SW-620 colon) was over 100 µM, the TGI (SF-295 CNS) was 13.6 µM and the TGI (UACC-257 melanoma) was over 47.4 µM. The TGI (SR leukemia) was 4.65 µM, the TGI (BT-549 breast) was 19.1 µM and the TGI (HT29 colon) was 4.18 µM. For the same compound, the TGI (SK-MEL-2 melanoma) was 4.03 µM, the TGI (KM12 colon) was over 100 µM and the TGI (EKVX NSCLC) was 18.4 µM. The TGI (A498 renal) was 6.71 µM, the TGI (SF-268 CNS) was 10 µM and the TGI (LOX IMVI melanoma) was 3.52 µM. For the same compound, the TGI (CAKI-1 renal) was over 63.1 µM, the TGI (DU-145 prostate) was over 100 µM and the TGI (HCT-116 colon) was 8.82 µM. The TGI (ACHN renal) was 20.6 µM, the TGI (NCI-H460 lung) was over 38.7 µM and the TGI (NCI-H23 lung) was 32.5 µM. The TGI (CCRF-CEM leukemia) was over 100 µM, the TGI (SNB-75 CNS) was over 37.5 µM and the TGI (HOP-62 NSCLC) was 39.4 µM. It also gave a TGI (HL-60(TB) leukemia) of 5.52 µM, a TGI (HCC-2998 colon) of 12.8 µM and a TGI (OVCAR-5 ovarian) of 15.4 µM. It also gave a TGI (K-562 leukemia) of over 100 µM, a TGI (M14 melanoma) of over 20.3 µM and a TGI (IGROV1 ovarian) of 9.7 µM. The TGI (MDA-MB-231 breast) was 11.2 µM, the TGI (MOLT-4 leukemia) was over 20.8 µM and the TGI (OVCAR-3 ovarian) was 9.92 µM. The TGI (SF-539 CNS) was 7.99 µM, the TGI (MDA-MB-435) was over 31.9 µM and the TGI (NCI/ADR-RES ovarian) was over 100 µM. The TGI (MCF7 breast) was 7.32 µM, the TGI (SN12C renal) was 8.76 µM and the TGI (OVCAR-8 ovarian) was over 51.5 µM. The TGI (OVCAR-4 ovarian) was over 47.4 µM, the TGI (SK-OV-3 ovarian) was over 100 µM and the TGI (NCI-H522 lung) was 7.61 µM. For the same compound, the TGI (MDA-N) was 27.9 µM, the TGI (786-0 renal) was 36.8 µM and the TGI (U251 CNS) was over 25.6 µM. The TGI (PC-3 prostate) was over 25.6 µM and the TGI (SNB-19 CNS) was over 65.6 µM.
